Laboratory results as given in paper PMC11530130, “Peripherally restricted PICK1 inhibitor mPD5 ameliorates pain behaviors in murine inflammatory and neuropathic pain models” (JCI Insight, 2024).

System: mice, spared nerve injury (SNI) model
Assay: SNI model, von Frey, single s.c. dose, female mice
Type: in vivo, mouse
Settings: s.c. 2, 10, 50 μmol/kg (all tested doses), 1 hour after injection
Method: solution (0.05 mg/kg) injected s.c. 30 min before surgery (10 μL/g). For surgery, mice were anaesthetised with ketamine (100 mg/kg, i.p.) and xylazine (10 mg/kg, i.p.) (volume 10 µL/g) with 100 μL of 1% xylocaine solution infiltrated at the site of the incision. The distal trifurcation of the sciatic nerve was identified, and the tibial and common peroneal branches were ligated with polypropylene nonabsorbable 6-0 sutures (Ethicon) and 1 mm was cut out, leaving the sural branch intact. The wound was closed with sutures, and the animals were allowed to recover and returned to their cages. […]
Wounds were closed with surgical glue or medical clips and animals were monitored daily for signs of stress or discomfort, but in all cases recovered uneventfully. […]
Unless otherwise specified, von Frey occurred as described in the following. […] Mechanical paw withdrawal threshold (PWT) was determined by von Frey measurements of both hind paws. […]
Mice were placed in PVC plastic boxes (11.5 cm x 14 cm) on a wire mesh and allowed minimum 20 min habituation prior of experiment initiation. Each von Frey hair was applied five times with adequate resting periods between each application and number of withdrawals recorded. The withdrawal threshold was determined as the von Frey filament eliciting at least three positive trials out of the five applications in two consecutive filaments. […]

CCCCCCCCCCCCCC(=O)N(CCOCCOCCC(=O)N[C@@H](Cc1c[nH]cn1)C(=O)N[C@@H](Cc1c[nH]c2ccccc12)C(=O)N[C@@H](CC(C)C)C(=O)N[C@@H](CCCCN)C(=O)N[C@H](C(=O)O)C(C)C)CCOCCOCCC(=O)N[C@@H](Cc1c[nH]cn1)C(=O)N[C@@H](Cc1c[nH]c2ccccc12)C(=O)N[C@@H](CC(C)C)C(=O)N[C@@H](CCCCN)C(=O)N[C@H](C(=O)O)C(C)C [mPD5, myristoyl-NPEG4-(HWLKV)2]
effect on mechanical hypersensitivity (PWT): significantly reduced mechanical hypersensitivity
